The values below come from patent publication EP3057949B1, “SECONDARY ALCOHOL QUINOLINYL MODULATORS OF ROR GAMMA T” (Janssen Pharmaceutica NV, priority 2013, dated 2015).

As a reminder, the Kd is the concentration at which binding is half-saturated. The inhibition is how much of the control response was suppressed. A low value points to a weak effect. One may read the IC50 as the concentration at which inhibition is half-maximal. Read a low IC50 as inhibition by little substance.

Assay [1] deals with T1, human RORγt ligand binding domain (RORγt LBD) (Homo sapiens, UniProt P51449).
T1 construct: His-tag (N); TurboTEV protease cleavage site (ENLYFQG) (N); made in house; host or cells: E. coli (pHIS1, modified pET vector)
T1 sequence (P51449 258-518): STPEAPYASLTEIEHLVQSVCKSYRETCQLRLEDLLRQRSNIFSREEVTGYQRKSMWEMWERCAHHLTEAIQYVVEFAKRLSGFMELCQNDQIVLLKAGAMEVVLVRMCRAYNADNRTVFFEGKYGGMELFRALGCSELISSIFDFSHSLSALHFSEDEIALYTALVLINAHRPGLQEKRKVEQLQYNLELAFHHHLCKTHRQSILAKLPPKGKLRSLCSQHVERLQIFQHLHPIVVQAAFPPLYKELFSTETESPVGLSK
Briefly: ThermoFluor® Assay (RORγt thermal shift binding). The conditions noted are these: 0.065 mg/mL RORγt, 60 µM 1,8-ANS, pH 7.0; estimated from concentration response curves. An outline of the steps:
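Thermal shift of 0.065 mg/mL RORγt with 60 µM 1,8-ANS in 100 mM Hepes pH 7.0, 10 mM NaCl, 2.5 mM GSH, 0.002% Tween-20, heated at 1 °C/min; fluorescence at 500 nm. KD estimated from concentration-response of ΔTm.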

For a further assay, the target named is T2, human RORγt LBD (Homo sapiens, UniProt P51449).
T2 construct: expressed in transfected cells; host or cells: HEK293T
T2 sequence (P51449 258-518): T1 sequence (P51449 258-518)
Briefly: RORγt (LBD) Reporter Assay (GAL4 luciferase, HEK293T cells). It is filed as cell-based. The conditions noted are these: for inhibition at 6 µM: HEK-293T; for inhibition at 6 µM / RORγt (LBD) Reporter Assay, % inhibition @ 6 µM: 6 µM compound; for IC50: compounds for 24 hours. An outline of the steps:
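HEK293T cells transiently co-transfected with GAL4 DBD–human RORγt LBD (pBIND, with renilla luciferase control) and GAL4-responsive firefly luciferase reporter, plated in phenol-red free DMEM with 5% lipid-reduced FCS. Compound exposure 24 h; firefly/renilla luminescence ratio plotted against compound concentration.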
(Reporter assays use an easily measured gene product as a stand-in for the process of interest.)

The test system of assay [2] is IL-17 production by CD4 T cells. Briefly: Human Th17 Assay (IL-17 production by CD4 T cells). The format is cell-based. The conditions noted are these: IL-17 in supernatant after 3 days, Th17 differentiation conditions. An excerpt:
The human Thl7 assay tests the effect of RORyt modulatory compounds on IL-17 production by CD4 T cells under conditions which favor Th17 differentiation.
Total CD4^+ T cells were isolated from the peripheral blood mononuclear cells (PBMC) of healthy donors using a CD4^+ T cell isolation kit II, following the manufacturer's instructions (Miltenyi Biotec). Cells were resuspended in a medium of RPMI-1640 supplemented with 10% fetal bovine serum, penicillin, streptomycin, […], and β-mercaptoethanol and were added to 96-well plates at 1.5x10^5 per 100 µL per well. 50 µL of compound at titrated concentrations in DMSO were added into each well at final DMSO concentration at 0.2%. Cells were incubated for 1 hour, then 50 µL of Th17 cell differentiation medium was added to each well. The final concentrations of antibodies and cytokines (R&D Systems) in differentiation medium were: 3x10^6/mL anti-CD3/CD28 beads (prepared using human T cell activation/expansion kit, Miltenyi Biotec), 10 µg/mL anti-IL4, 10 µg/mL anti-IFNγ, 10 ng/mL IL1β, 10 ng/mL IL23, 50 ng/mL IL6, 3 ng/mL TGFβ and 20 U/mL IL2. Cells were cultured at 37 °C and 5% CO2 for 3 days. Supernatants were collected and the accumulated IL-17 in culture was measured by using MULTI-SPOT® Cytokine Plate following manufacture's instruction (Meso Scale Discovery). The plate was read using Sector Imager 6000, and IL-17 concentration was extrapolated from the standard curve. The IC50s were determined by GraphPad.

Consider `COc1nc2ccc(C(O)c3cnnn3C)cc2c(Cl)c1Cc1ccc(C(F)(F)F)cc1` (single isomer, unassigned) [Example 17b, (4-Chloro-2-methoxy-3-(4-(trifluoromethyl)benzyl)quinolin-6-yl)(1-methyl-1H-1,2,3-triazol-5-yl)methanol], for which the Kd in assay [1] was 81 nM. At human RORγt LBD, the inhibition at 6 µM stood at 96% and it took 240 nM to reach half-maximal inhibition (IC50). The compound further displayed an IC50 in assay [2] of 440 nM.
Take `COc1nc2ccc(C(O)c3cnnn3C)cc2c(Cl)c1Cc1ccc(C(F)(F)F)cc1` (single isomer, unassigned) [Example 17c, (4-Chloro-2-methoxy-3-(4-(trifluoromethyl)benzyl)quinolin-6-yl)(1-methyl-1H-1,2,3-triazol-5-yl)methanol]: the Kd in assay [1] was 130 nM. Moreover, on human RORγt LBD, the “RORγt (LBD) Reporter Assay, % inhibition @ 6 µM” value (“RORγt … % inhibition @ 6 µM” for short) was 97% and it took 210 nM to reach half-maximal inhibition (IC50). This compound gave an IC50 in assay [2] of 140 nM.
`COc1nc2ccc(C(O)c3cncn3C)cc2c(Cl)c1Cc1ccc(C(F)(F)F)cc1` (single isomer, unassigned) [Example 18c, (4-Chloro-2-methoxy-3-(4-(trifluoromethyl)benzyl)quinolin-6-yl)(1-methyl-1H-imidazol-5-yl)methanol]: the Kd in assay [1] was 260 nM. Also, at human RORγt LBD, the “RORγt … % inhibition @ 6 µM” value amounted to 96% and the IC50 turned out to be 320 nM. Also, the midpoint of inhibition in assay [2] (Homo sapiens, CD4+ T, 72 h), the IC50, lay at 650 nM.
In the case of `Cc1ncc(C(O)c2ccc3nc(N4CCC4)c(Cc4ccc(-n5cccn5)cc4)c(Cl)c3c2)n1C` (single isomer, unassigned) [Example 21c, {2-Azetidin-1-yl-4-chloro-3-[4-(1H-pyrazol-1-yl)benzyl]quinolin-6-yl}(1,2-dimethyl-1H-imidazol-5-yl)methanol], in assay [1], the Kd was 190 nM. For the same compound, on human RORγt LBD, the “RORγt … % inhibition @ 6 µM” value amounted to 92% and the half-inhibitory concentration (IC50) came to 450 nM. Moreover, half-maximal inhibition in assay [2] (Homo sapiens, CD4+ T, 72 h) (IC50) required 2600 nM.
For the compound `Cc1ncc(C(O)c2ccc3nc(N4CCC4)c(Cc4ccc(C(F)(F)F)cc4)c(Cl)c3c2)n1C` (single isomer, unassigned) [Example 22b, {2-Azetidin-1-yl-4-chloro-3-[4-(trifluoromethyl)benzyl]quinolin-6-yl}(1,2-dimethyl-1H-imidazol-5-yl)methanol], the Kd in assay [1] was 55 nM. Also, at human RORγt LBD, the inhibition at 6 µM came to 95% and it took 240 nM to reach half-maximal inhibition (IC50). The compound also gave an IC50 in assay [2] of 9.4 nM.
`Cc1ncc(C(O)c2ccc3nc(N4CCC4)c(Cc4ccc(C(F)(F)F)cc4)c(Cl)c3c2)n1C` (single isomer, unassigned) [Example 22c, {2-Azetidin-1-yl-4-chloro-3-[4-(trifluoromethyl)benzyl]quinolin-6-yl}(1,2-dimethyl-1H-imidazol-5-yl)methanol]: the Kd in assay [1] was 43 nM. Moreover, at human RORγt LBD, the “RORγt … % inhibition @ 6 µM” value is recorded as 96%. Moreover, the figures for the IC50 (at human RORγt LBD; in assay [2]) were roughly 400 nM and 2.9 nM, respectively.
In the case of `Cc1ccc(C(O)c2ccc3nc(N4CCC4)c(Cc4ccc(C(F)(F)F)cc4)c(Cl)c3c2)c(C)n1` (single isomer, unassigned) [Example 23b, {2-Azetidin-1-yl-4-chloro-3-[4-(trifluoromethyl)benzyl]quinolin-6-yl}(2,6-dimethylpyridin-3-yl)methanol], the Kd in assay [1] is 110 nM. Moreover, at human RORγt LBD, the inhibition at 6 µM is 98% and the IC50 came to 220 nM. Moreover, half-maximal inhibition in assay [2] (Homo sapiens, CD4+ T, 72 h) (IC50) was put at 380 nM.
As for `Cc1ccc(C(O)c2ccc3nc(N4CCC4)c(Cc4ccc(C(F)(F)F)cc4)c(Cl)c3c2)c(C)n1` (single isomer, unassigned) [Example 23c, {2-Azetidin-1-yl-4-chloro-3-[4-(trifluoromethyl)benzyl]quinolin-6-yl}(2,6-dimethylpyridin-3-yl)methanol], in assay [1], the Kd is 200 nM. At human RORγt LBD, the “RORγt … % inhibition @ 6 µM” value was found to be 99% and the IC50 stood at 280 nM. This compound also displayed an IC50 in assay [2] of 480 nM.
